In assay [1] the test system is HCT116 (non-monocytic cell line). Briefly: Cell proliferation inhibition assay (WST-1), HCT116. The class given is cell-based. The conditions noted are these: for Ratio IC50 cell/enzyme: HCT116 cell proliferation IC50 / DHFR enzyme IC50; for IC50: Homo sapiens. How it is done:
(§1) Following 24 h of growth cells were treated with compound. Plates were then re-incubated for a further 72-96 h before a WST-1 cell viability assay was conducted according to the suppliers (Roche Applied Science) instructions.
(§2) Data were expressed as a percentage inhibition of the control, measured in the absence of inhibitor, as follows: —
(§3) where S^i is the signal in the presence of inhibitor and S^o is the signal in the presence of DMSO.
(§4) Dose response curves were generated from 8 concentrations (top final concentration 10 μM, with 3-fold dilutions), using 6 replicates.

Assay [2] has as its system U937 cells (monocytic cell line). Briefly: Cell proliferation inhibition assay (WST-1), U937. In kind it is cell-based. The settings on record: for IC50: Homo sapiens. The method, then:
as §1, §2, §3, §4
(Tetrazolium dyes change colour on reduction, which living cells bring about.)

For a further assay, the target named is T1, human aurora kinase A (Homo sapiens, UniProt O14965).
T1 construct: recombinant, full length human aurora kinase A, N-terminally fused to GST; GST (N); purchased ProQuinase (so in the source); host or cells: baculovirus / Sf21 insect cells
T1 sequence (O14965 1-403): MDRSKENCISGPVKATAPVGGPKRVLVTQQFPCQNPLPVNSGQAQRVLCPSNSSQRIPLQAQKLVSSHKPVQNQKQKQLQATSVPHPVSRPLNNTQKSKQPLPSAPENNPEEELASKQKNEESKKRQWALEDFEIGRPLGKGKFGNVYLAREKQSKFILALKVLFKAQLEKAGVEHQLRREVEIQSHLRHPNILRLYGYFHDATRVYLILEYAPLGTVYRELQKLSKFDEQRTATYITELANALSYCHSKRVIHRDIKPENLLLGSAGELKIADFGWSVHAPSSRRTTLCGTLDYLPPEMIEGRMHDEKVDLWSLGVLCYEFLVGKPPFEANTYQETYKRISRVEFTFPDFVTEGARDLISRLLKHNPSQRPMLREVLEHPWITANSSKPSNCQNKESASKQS
Briefly: Aurora kinase A inhibitory activity assay (Flashplate, 33P-ATP). In kind it is biochemical. The settings on record: 10 μM ATP; read-out: Enzyme inhibition IC50 nM (Aurora kinase A). The method, then:
The ability of compounds to inhibit aurora kinase A activity was measured using a microplate assay. In brief, 96-well Flashplates® (PerkinElmer Life Sciences) were pre-coated with myelin basic protein (MBP). MBP (100 ul of […] in PBS) was incubated at 37° C. for 1 h, followed by overnight incubation at 4° C. Plates were then washed with PBS and allowed to air dry.
Wells lacking inhibitor were used as vehicle controls and wells containing no enzyme were used to measure the ‘background’ signal. Plates were incubated overnight at 30° C. After incubation the contents of the wells were removed and the plates washed three times with PBS containing 10 mM tetra sodium pyrophosphate prior to scintillation counting using a Wallac MicroBeta TriLux.
Dose response curves were generated from 10 concentrations (top final concentration 10 μM, with 3-fold dilutions), using triplicate wells.
[…] values were determined by non-linear regression analysis, after fitting the data point results to the equation for sigmoidal dose response with variable slope (% activity against log concentration of compound), using Xlf it software.

Assay [3] deals with TNFα production in human whole blood. Briefly: LPS-stimulation of human whole blood, TNF-α ELISA. The class given is cell-based. The settings on record: for IC50: Homo sapiens, 6 h; for Ratio IC50 WB/enzyme: whole blood TNFα IC50 / P38 MAP kinase IC50. How it is done:
Whole blood was taken by venous puncture using heparinised vacutainers (Becton Dickinson) and diluted in an equal volume of RPMI1640 tissue culture media. 100 μl was plated in V-bottomed 96 well tissue culture plates. Inhibitor was added in 100 μl of RPMI1640 media, and 2 h later the blood was stimulated with LPS (E coli strain 005:B5, Sigma) at a final concentration of 100 ng/ml and incubated at 37° C. in 5% CO2 for 6 h. TNF-α levels were measured from cell-free supernatants by sandwich ELISA (R&D Systems #QTA00B).
(In general: In an ELISA, binding on a coated surface is turned into a signal by an enzyme label.)

The target in the next assay is T2, p38 MAP kinase α (Homo sapiens, UniProt Q16539).
T2 construct: full length human enzyme expressed in E coli as an N-terminally GST-tagged protein; GST (N); purchased Upstate (Dundee UK), assay run by the vendor; host or cells: E. coli
T2 sequence (Q16539 whole entry): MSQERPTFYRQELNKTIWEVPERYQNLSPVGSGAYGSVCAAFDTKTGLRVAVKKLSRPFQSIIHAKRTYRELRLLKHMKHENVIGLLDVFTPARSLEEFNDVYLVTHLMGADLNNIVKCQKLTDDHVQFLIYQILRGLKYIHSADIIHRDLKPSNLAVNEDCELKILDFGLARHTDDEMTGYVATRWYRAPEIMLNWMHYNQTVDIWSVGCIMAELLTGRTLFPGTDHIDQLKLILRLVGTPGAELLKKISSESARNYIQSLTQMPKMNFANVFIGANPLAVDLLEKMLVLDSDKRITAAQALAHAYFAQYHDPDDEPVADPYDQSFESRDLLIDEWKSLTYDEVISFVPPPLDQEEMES
Briefly: P38 MAP kinase α inhibitory activity assay. The class given is biochemical. The conditions noted are these: ATP 90 μM; read-out: Enzyme inhibition IC50 nM (P38 MAP kinase). The method, then: The ability of compounds to inhibit p38 MAP kinase α (full length human enzyme expressed in E coli as an N-terminally GST-tagged protein) activity was measured in an assay performed by Upstate (Dundee UK). […] The reaction was initiated by the addition of the MgATP mix. After incubation for 40 minutes at room temperature, the reaction was stopped by the addition of 5 μl of a 3% phosphoric acid solution. 10 μl of the reaction was then spotted onto a P30 filtermat and washed three times for 5 minutes in 75 mM phosphoric acid and once in methanol, prior to drying and scintillation counting.
Dose response curves were generated from a ½ log dilution series of a stock inhibitor solution in DMSO. Nine dilutions steps were made from a top, final concentration of 10 μM, and a ‘no compound’ blank was included. Samples were run in duplicate. Data from scintillation counts were collected and subjected to free-fit analysis by Graphpad Prism software. From the curve generated, the concentration giving 50% inhibition was determined.

The mark [4] stands for this setting: U-937, read-out: Cell proliferation IC50 nM (U937 cells).
Setting [5] is: U937 cell proliferation IC50 / DHFR enzyme IC50.
[6] abbreviates: HCT-116, HCT116 non-monocytic cell line, read-out: Cell proliferation IC50 nM (HCT116).
Setting [7] is: U-937, U937 monocytic cell line, read-out: Cell proliferation IC50 nM (U937 cells).
[8] abbreviates: U937 cell proliferation IC50 / Aurora kinase A IC50.
Setting [9] is: LPS 100 ng/ml, read-out: Inhibition of TNFα production in human whole blood IC50.

Molecules are shown by their SMILES. Structures can show the parent of a compound that is named as a salt. Where two headings read alike, the source gives them in different places. Where only a bound is given, the exact number is not on record here.

Regarding `COc1cc(NCc2cnc3nc(N)nc(N)c3c2C)cc(OC)c1OC` [Compound 2 G = N, 5-Methyl-6-((3,4,5-trimethoxyphenylamino)methyl)pyrido[2,3-d]pyrimidine-2,4-diamine, reference compound], the “Ratio IC50 cell/enzyme” value is reported as 170 in assay [1] and 220 in assay [2] (setting [5]). Moreover, the IC50 in assay [1] (HCT-116, read-out: Cell proliferation IC50 nM (HCT116)) came out at 1700 nM; in assay [2] (setting [4]), 2200 nM. For the same molecule, the “selectivity between a monocytic and non-monocytic cell line (cell proliferation)” value in assay [2] (U937 versus HCT116) is given as “no selectivity”.
`Cc1c(CNc2ccc(OCC[C@H](N)C(=O)OC3CCCC3)cc2)cnc2nc(N)nc(N)c12` [Compound 3, (S)-2-Amino-4-{4-[(2,4-diamino-5-methyl-pyrido[2,3-d]pyrimidin-6-ylmethyl)-amino]-phenoxy}-butyric acid cyclopentyl ester]: the “Ratio IC50 cell/enzyme” value in assay [1] amounted to 1.4; in assay [2] (setting [5]), 1.9. Further, the IC50 is 7300 nM in assay [1] (setting [6]) and 5100 nM in assay [2] (setting [7]).
Consider `Cc1c(CNc2ccc(C(=O)N[C@@H](CC(C)C)C(=O)OC3CCCC3)cc2)cnc2nc(N)nc(N)c12` [Compound 6, (S)-2-{4-[(2,4-Diamino-5-methyl-pyrido[2,3-d]pyrimidin-6-ylmethyl)-amino]-benzoylamino}-4-methyl-pentanoic acid cyclopentyl ester], for which the entries for the “fold more potent than the unmodified analogue (2 G=N)” value in assay [1] (HCT116) and in assay [2] (U937 cells) were 15 fold and 100 fold, respectively. In addition, the “Ratio IC50 cell/enzyme” value in assay [1] was 0.04; in assay [2] (setting [5]), 0.013. The IC50 was 110 nM in assay [1] (setting [6]) and 23 nM in assay [2] (setting [7]).
With `O=C(CCCCCCC(=O)Nc1ccccc1)NO` [Compound 7, Suberoylanilide hydroxamic acid, reference compound], in assay [2] (setting [4]), the IC50 turned out to be 400 nM.
`COc1cc2nccc(Oc3ccc(NC(=O)c4ccccc4)cc3)c2cc1OC` [Compound 11, N-{4-(7-methoxy-6-methoxy-quinoline-4-yloxy)-phenyl}-benzamide, reference compound]: the IC50 at human aurora kinase A was 350 nM; in assay [2] (setting [7]), 430 nM. Also, the “Ratio IC50 cell/enzyme” value in assay [2] (setting [8]) was 1.3.
The like results for `COc1cc2c(Oc3ccc(NC(=O)c4ccccc4)cc3)ccnc2cc1OCC[C@H](N)C(=O)OC1CCCC1` [Compound 12, (S)-2-amino-4-[4-(4-benzoylamino-phenoxy)-6-methoxy-quinolin-7-yloxy]-butyric acid cyclopentyl ester] were, in that order, 2300 nM, 3.5 nM and 0.0015.
For `COc1cc2c(Oc3ccc(NC(=O)c4ccccc4)cc3)ccnc2cc1OCC[C@H](N)C(=O)O` [Compound 13], the values for the IC50 (on human aurora kinase A; in assay [2] (setting [7])) were 500 nM and > 5000 nM, respectively.
Consider `COc1cc2c(Oc3ccc(NC(=O)c4ccccc4)cc3)ccnc2cc1OCC[C@H](N)C(=O)OC(C)(C)C` [Compound 14, (S)-2-Amino-4-[4-(4-benzoylamino-phenoxy)-6-methoxy-quinolin-7-yloxy]-butyric acid tert-butyl ester], for which the figures for the IC50 (at human aurora kinase A; in assay [2] (setting [7])) were 3000 nM and 75 nM, respectively. Besides, the “fold less active in the cell assay than cyclopentyl ester (Compound 12)” value in assay [2] (U937 cell proliferation) is listed as ~20 fold. In addition, the “Ratio IC50 cell/enzyme” value in assay [2] (setting [8]) came to 0.025.
Turning to `Nc1c(C(=O)c2ccc(F)cc2F)ccc(=O)n1-c1c(F)cccc1F` [Compound 15, 6-Amino-5-(2,4-difluoro-benzoyl)-1-(2,6-difluoro-phenyl)-1H-pyridin-2-one, reference compound], the IC50 came to 300 nM in assay [3] (setting [9]) and 50 nM at p38 MAP kinase α. Further, in assay [3], the “Ratio IC50 WB/enzyme” value was 6.
As for `Nc1c(C(=O)c2ccc(F)cc2F)ccc(=O)n1-c1c(F)cc(OCC[C@H](N)C(=O)OC2CCCC2)cc1F` [Compound 16, cyclopentyl (S)-2-Amino-4-(4-[6-amino-5-(2,4-difluorobenzoyl)-2-oxo-2H-pyridin-1-yl]-3,5-difluorophenoxy)butanoate trifluoroacetate], the IC50 in assay [3] (read-out: Inhibition of TNFα production in human whole blood IC50 nM) came out at 20 nM; at p38 MAP kinase α it was 25 nM. Also, the “Ratio IC50 WB/enzyme” value in assay [3] is reported as 0.8.
With `Nc1c(C(=O)c2ccc(F)cc2F)ccc(=O)n1-c1c(F)cc(OCC[C@H](N)C(=O)O)cc1F` [Compound 17, (S)-2-Amino-4-(4-[6-amino-5-(2,4-difluorobenzoyl)-2-oxo-2H-pyridin-1-yl]-3,5-difluorophenoxy)butanoic acid], the IC50 at p38 MAP kinase α is 30 nM.
On to `CC(C)(C)OC(=O)[C@@H](N)CCOc1cc(F)c(-n2c(N)c(C(=O)c3ccc(F)cc3F)ccc2=O)c(F)c1` [Compound 18, (S)-2-Amino-4-{4-[6-amino-5-(2,4-difluoro-benzoyl)-2-oxo-2H-pyridin-1-yl]-3,5-difluoro-phenoxy}-butyric acid tert-butyl ester], for which the results for the IC50 (in assay [3] (setting [9]); at p38 MAP kinase α) were 750 nM and 40 nM, respectively. The “Ratio IC50 WB/enzyme” value in assay [3] worked out at 18.
On to `COc1cc2c(Oc3ccc(NC(=O)c4ccccc4)cc3)ccnc2cc1OCC[C@H](NC1CCCCC1)C(=O)OC1CCCC1` [Compound 25, (S)-4-[4-(4-Benzoylamino-phenoxy)-6-methoxy-quinolin-7-yloxy]-2-cyclohexylamino-butyric acid cyclopentyl ester], for which the IC50 is 6100 nM in assay [1] (setting [6]) and 1900 nM in assay [2] (setting [7]).

The values are drawn from patent US20150126534A1, “ENZYME AND RECEPTOR MODULATION” (Chroma Therapeutics Ltd, priority 2005, published 2015).
